Legend:
Type in all cases: in vivo
type 1 diabetic mice [1] = assay: Type 1 diabetes mouse model, treatment over twelve weeks (prevention), 2D echocardiography
Protocol: To explore whether GLUT1 inhibition holds therapeutic potential against diabetic cardiomyopathy, diabetic mice were treated with a GLUT1 inhibitor (STF-31). Specifically, type 1 diabetes was induced in WT mice and mice were monitored for twelve weeks.
(§1) To evaluate the impact of GLUT1 and myocardial glucose content changes on cardiac function and structure, 2D echocardiography was performed to measure EF, FS, end-diastolic and end-systolic volumes (EDV, ESV), stroke volume (SV), and cardiac output (CO) using M-mode short axis images, automatic tracing, myocardial strain and strain rate with speckle tracking. From the pulsed wave Doppler spectral waveforms, the peak early and late diastolic transmitral velocities (E, A waves) were measured to obtain the E/A ratio.
One group of mice was treated with STF-31 for the entire twelve-weeks period.
Prior to this disclosure, treatment of diabetic patients with SGLT2 inhibitors (dapa or empagliflozin), has shown the most robust cardioprotective effects. Treatment of diabetic mice with dapa corrected hyperglycemia (FIG. 4A) and prevented systolic (FIG. 4B) and diastolic heart failure (FIG. 4C) in both early and late type 1 diabetes.

type 1 diabetic mice [2] = assay: Type 1 diabetes mouse model, treatment started after cardiac dysfunction was confirmed (6 weeks) until the twelfth week
Protocol: as §1
In another mouse cohort, treatment with either STF-31 or dapa started after cardiac dysfunction was confirmed (6 weeks of type 1 diabetes) and continued until the twelfth week. This treatment corrected both systolic (FIG. 4D) and diastolic (FIG. 4E) dysfunction. Importantly, treatment with either STF-31 or dapa prevented upregulation of KLF5. Thus, inhibition of GLUT1 appears as a novel therapeutic target for diabetic cardiomyopathy that prevents activation of the cardiotoxic FOXO1-KLF5 axis.

[3] = system: type 2 diabetic mice (HFD); assay: Type 2 diabetes mouse model (high-fat diet 32 weeks, then 8 weeks of treatment); settings: HFD type 2 diabetes mice
Text: Similar results were shown in mouse models of type 2 diabetes, wherein mice were fed a high-fat diet (HFD) for 32 weeks prior to initiating 8 weeks of treatment with SFT-31.

[4] = treatment from 6 weeks of type 1 diabetes until twelfth week, after confirmed cardiac dysfunction

CC(C)(C)c1ccc(S(=O)(=O)NCc2ccc(C(=O)Nc3cccnc3)cc2)cc1 [STF-31]
diastolic dysfunction (mitral valve E/A ratio) (type 1 diabetic mice [1]): did not develop | plasma glucose levels (hyperglycemia) (type 1 diabetic mice [1]): persistent hyperglycemia | systolic dysfunction (type 1 diabetic mice [1]): did not develop | diastolic dysfunction (type 1 diabetic mice [2]; [4]): corrected | systolic dysfunction (type 1 diabetic mice [2]; [4]): corrected | upregulation of KLF5 (type 1 diabetic mice [2]; type 1 diabetic mice): prevented | KLF5 upregulation [3]: prevented | diastolic dysfunction [3]: did not develop | hyperglycemia [3]: persistent hyperglycemia | systolic dysfunction [3]: did not develop
